Results published in patent US9566264B2, “Combinations and methods” (Euthymics Bioscience, Inc., priority 2013, dated 2017).
pIC50: −log10 of the molar value. Structures can show the parent of a compound that is named as a salt. Where two headings read alike, the source gives them in different places.

Experiments:
[1] = test system: human hepatocytes; settings: male, 4 h
Protocol: (§1) Cryopreserved human hepatocytes (male) that are prepared by XenoTech, LLC (Lenexa, Kans.), are thawed on the day of use and resuspended in Waymouth's incubation media. The enzymatic activity of hepatocytes is monitored using 7-ethoxycoumarin and 7-hydroxycoumarin as substrates. […] The incubations are carried out for 4 hours with 1×10^6 viable cells/ml. […] At 0 and 4 hour, cell suspensions are extracted using two volumes of ice cold methanol. After centrifugation, the extracts are stored at −20° C. until further sample processing. The solvent in the samples are dried under a stream of nitrogen, and resuspended in methanol:water (1:1) before analysis.
(§2) The extracts of the 4 hour incubation mixture are analyzed by liquid chromatography/electrospray ionization-mass spectrometry (LC/ESI-MS) in the positive and negative ion modes to screen for possible metabolites. […] The same instrumentation and methods in HPLC Method 1 are used in HPLC Method 2 with the exception that the mobile phases and gradient are 0.4% HCOOH in H2O for mobile A and CH3OH for mobile phase B. The mass spectrometer is LCQ™ Ion Trap Mass Spectrometer and is in either the positive or negative electrospray mode with the ion spray set at 4.5 kV. The capillary temperature is 250° C., the nitrogen sheath gas flow rate is ˜80 unit, the auxiliary nitrogen gas flow rate is 20 unit, and the collision gas is helium.

[2] = test system: human hepatocytes; assay: In vitro metabolism in human hepatocytes; settings: 100 μM, 4 hours incubation
Protocol: as §1, §2

[3] = NADPH-dependent lactam formation in human liver microsomes; assay type: in vitro ADME; settings: for formation: area under the curve ratio of analyte to internal standard bicifadine-d5: 10 μM parent, 30 minutes, mean ± SD
Protocol: The effect of NADPH on lactam formation ((1S,5R)-5-(3,4-dichlorophenyl)-3-azabicyclo[3.1.0]hexan-2-one hydrochloride, Compound 2) is conducted by XenoBiotic Laboratories, Inc. (Plainsboro, N.J.). […] Bicifadine ((±)-1-(4-methylphenyl)-3-azabicyclo-[3.1.0]hexane HCl) (10 μM) is used as a positive control and the formation of the lactam metabolite of bicifadine (designated M12) is also monitored. Negative controls are determined by incubation of amitifadine and bicifadine in the absence of liver enzymes. The samples are analyzed using LC-MS/MS.
The system controller for the HPLC system is a Shimadzu SCL-10Avp, the pump model is a Shimadzu LC-10Avp, and the autosampler model is Shimadzu HTA. The analytical column is Phenomenex Luna C18 5 μm 50×2.0 mm which is set at room temperature and the autosampler is also at room temperature. The injection volume is 5 μl. Mobile phase A is 0.05% formic acid in water and mobile phase B is 0.05% formic acid in acetonitrile. The flow rate is 0.7 ml/minute and run time is 5 minutes. The mass spectrometer is an AB MDX Sciex API-4000 run in the turbo ion spray (ESI) positive ion detection mode and the scan mode is multiple reaction monitoring (MRM). The optimized mass spectrometry conditions are ion spray at 5000 V, curtain gas 10 units temperature 500° C., entrance potential 10 V, collision gas 6 units, and gas 1 and 2 each 50 units.

[4] = test system: monoamine transporters; assay: Affinity for monoamine transporters; assay type: binding
[5] = Brain and plasma levels of amitifadine and lactam metabolite Compound 2 in rat; assay type: in vivo; design: plasma level, mean±SEM: unit not given here; settings: for plasma level, mean±SEM: amitifadine 10 mg/kg po
Protocol: The studies are conducted in accordance with the Institutional Animal Care and Use Committee guidelines. […] At 0.5, 1, 2, and 4 hour after dosage, animals are briefly anesthetized in a chamber containing 4% isoflurane and rapidly decapitated. Trunk blood is collected in heparinized tubes (9 units/ml whole blood), immediately chilled to 4° C., centrifuged, and the plasma is frozen at −80° C. until analyzed. Brains are quickly removed, bisected along the midline, and frozen at −80° C. until analyzed.
Plasma and brain samples are allowed to thaw on ice and are homogenized in a 20 ml glass vial in two volumes of ice cold water using a handheld homogenizer (VDI 12, VWR International). Standard curves are prepared in water, control plasma, and control brain homogenate. Equal volumes (100 μl) of plasma or brain homogenate samples, distilled water and internal standard are mixed in 1.5 ml polypropylene tubes and 300 μl of acetonitrile is added to each mixture. Samples are then mixed thoroughly by placing on a shaker at 200 RPM for 40 minutes at room temperature. The samples are then centrifuged at 10,000×g for 10 minutes at 4° C. and the supernatant (200 μl) is transferred to a tube containing 2 μl of 10% formic acid. The samples are subjected to a Zorbax SBC18 Solvent Saver Plus 3.0×150 mm 3.5-μm column on a Shimadzu Prominence LC. […] The concentration of compound in the column effluent is measured using an Applied Biosystems API-3200 triple quadrupole mass spectrometer.

[6] = MAO phenotyping with MAO inhibitors in human liver mitochondria; assay type: in vitro ADME; settings: 1 μM parent, 30 minutes at 37° C.
Protocol: A study on the role of monoamine oxidases involved in the formation of the lactam metabolite is conducted by XenoBiotic Laboratories, Inc. (Plainsboro, N.J.).

[7] = Flavin monooxygenase (FMO)-dependent lactam formation screening (pre-incubation temperature); assay type: in vitro ADME, human; settings: for formation: area under the curve ratio of analyte to internal standard bicifadine-d5: 1 mM NADPH, mean ± SD; for formation after 37° C. pre-incubation versus 45° C. pre-incubation: 5 minute pre-incubation
Protocol: FMOs, but not CYP enzymes, are sensitive to elevated incubation temperature. Thus, to determine if the formation of the lactam metabolite is mediated by FMOs and/or CYPs, the effect of pre-incubation temperature on the lactam formation is conducted by XenoBiotic Laboratories, Inc. (Plainsboro, N.J.). […] The incubation of benzydamine (positive control, 200 μM) is carried out concurrently. The samples are analyzed using LC-MS/MS (see NADPH-dependent lactam formation methodology).

[8] = test system: Caco-2 cells; assay: Caco-2 bi-directional permeability assay; assay type: in vitro ADME, human
Protocol: Caco-2 cells are obtained from American Type Culture Collection (ATCC, Manassas, Va.) and are grown to confluence for 14-21 days on 1 μm filters in 24 well plates. […] Receiver solutions consist of buffer only. Sequential samples of transported solute are taken at 20 minute intervals in duplicate over 2 hours and the concentration of the transported compound is determined by HPLC-UV/MS. Test sample concentration is determined by LC/MS. Permeability coefficients are calculated for each sampling interval, and averages from the intervals are determined. The apparent permeability coefficient Papp is calculated from the equation
[formula] where dQ/dt is the rate of permeation of drug across the cells, C0 is the original concentration in donor compartment at time zero, and A is the area of the cell monolayer. Mass balance in the system is ascertained by comparing the sum of transported solute and remaining donor solute to the starting solution concentration.

[9] = Human plasma protein binding (ultrafiltration); assay type: in vitro ADME
Protocol: Samples of test drug in triplicate are mixed and incubated in Millipore Multiscreen filter plates with Ultracel-10 regenerated cellulose membranes for 60 minutes at 37° C. Following incubation, samples undergo centrifugation for 60 minutes at 2000×g and the filtrate is collected. Percent protein bound is determined from the concentration of free compound present in the filtrate following comparison to a standard curve of test drug. […] The flow rate is 1 ml/min and the column temperature is maintained at 50° C. The solvent is a gradient of solvent A composed of 0.1% formic acid in water and solvent B composed of acetonitrile with 0.07% formic acid.

[10] = target: CYP2C19 (Homo sapiens, UniProt P33261); assay: Inhibition of human CYP activity in microsomes: (S)-mephenytoin 4′-hydroxylation; settings: pooled human liver microsomes, 10 to 30 min at 37° C.
CYP2C19, sequence (P33261 whole entry): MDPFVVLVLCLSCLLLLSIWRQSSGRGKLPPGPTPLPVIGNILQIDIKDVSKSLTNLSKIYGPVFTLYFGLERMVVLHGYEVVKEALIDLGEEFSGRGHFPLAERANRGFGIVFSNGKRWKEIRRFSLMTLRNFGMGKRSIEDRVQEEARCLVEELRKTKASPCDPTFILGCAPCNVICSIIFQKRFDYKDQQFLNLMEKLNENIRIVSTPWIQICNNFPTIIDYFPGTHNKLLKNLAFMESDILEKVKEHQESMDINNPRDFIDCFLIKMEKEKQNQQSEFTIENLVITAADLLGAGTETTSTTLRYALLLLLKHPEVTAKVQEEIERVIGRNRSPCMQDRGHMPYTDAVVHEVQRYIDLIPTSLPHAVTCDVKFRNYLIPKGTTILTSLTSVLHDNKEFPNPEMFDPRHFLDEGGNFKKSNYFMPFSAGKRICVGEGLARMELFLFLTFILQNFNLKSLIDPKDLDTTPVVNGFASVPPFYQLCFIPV

[11] = target: T1, CYP2B6 (Homo sapiens, UniProt P20813); assay: Inhibition of human CYP activity in microsomes: bupropion hydroxylation; settings: pooled human liver microsomes, 10 to 30 min at 37° C.
T1 sequence (P20813 1-491): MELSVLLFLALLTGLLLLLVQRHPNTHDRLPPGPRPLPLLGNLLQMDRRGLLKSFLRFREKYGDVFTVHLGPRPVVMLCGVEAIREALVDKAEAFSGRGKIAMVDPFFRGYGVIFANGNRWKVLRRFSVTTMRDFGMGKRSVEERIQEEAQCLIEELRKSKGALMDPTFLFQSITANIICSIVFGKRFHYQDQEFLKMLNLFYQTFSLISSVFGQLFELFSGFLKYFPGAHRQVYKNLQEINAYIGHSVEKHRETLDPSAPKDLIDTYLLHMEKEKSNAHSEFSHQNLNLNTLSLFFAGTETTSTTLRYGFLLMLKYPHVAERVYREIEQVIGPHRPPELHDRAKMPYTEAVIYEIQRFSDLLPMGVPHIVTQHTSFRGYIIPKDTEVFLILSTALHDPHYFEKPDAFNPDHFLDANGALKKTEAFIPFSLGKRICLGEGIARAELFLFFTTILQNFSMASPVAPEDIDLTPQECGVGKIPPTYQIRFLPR

[12] = male, Sprague-Dawley, brain/plasma, po, 10 mg/kg, read-out: brain to plasma ratio
[13] = microsomes pre-incubated at 37° C. for 5 minutes
[14] = microsomes pre-incubated at 45° C. for 5 minutes
[15] = human, Caco-2, 2 h, 10 μM, pH 7.4

Compound: CCOc1ccc2ccc(=O)oc2c1 [7-ethoxycoumarin, reference compound]
- metabolized after incubation ([1]; 100 μM): 68.9%

Compound: O=c1ccc2ccc(O)cc2o1 [7-hydroxycoumarin]
- metabolized after incubation [2]: 99.1%

Compound: O=C1NC[C@]2(c3ccc(Cl)c(Cl)c3)C[C@H]12 [Compound 2, (1S,5R)-5-(3,4-dichlorophenyl)-3-azabicyclo[3.1.0]hexan-2-one hydrochloride]
- formation: area under the curve ratio of analyte to internal standard bicifadine-d5 ([3]; 0 mM NADPH at 37° C): 0.04 ± 0.00
- formation: area under the curve ratio of analyte to internal standard bicifadine-d5 ([3]; 1 mM NADPH at 37° C.): 0.08 ± 0.01
- quantity formed in presence of NADPH versus absence of NADPH ([3]; 1 mM vs 0 mM NADPH): 2 fold
- affinity for monoamine transporters [4]: low affinity
- plasma level, mean±SEM ([5]; 0.5 hours): 1153±610
- plasma level, mean±SEM ([5]; 1 hour): 1620±303
- plasma level, mean±SEM ([5]; 2 hours): 3831±1127
- plasma level, mean±SEM ([5]; 4 hours): 8896±794
- Kp at 0.5 h [5, 12]: 1.1
- Kp at 1 h [5, 12]: 1.3
- Kp at 2 h [5, 12]: 1.4
- Kp at 4 h [5, 12]: 1.7
- effect of MAO-A inhibitor clorgyline on lactam formation [6]: concentration-dependently decreased
- effect of MAO-B inhibitor selegiline on lactam formation [6]: did not have an effect
- formation: area under the curve ratio of analyte to internal standard bicifadine-d5 [7, 13]: 0.05 ± 0.01
- formation: area under the curve ratio of analyte to internal standard bicifadine-d5 [7, 14]: 0.06 ± 0.01
- formation after 37° C. pre-incubation versus 45° C. pre-incubation [7]: did not alter

Compound: Lucifer yellow [reference compound]
- transfer across Caco-2 monolayer (integrity) ([8]; Caco-2): ≤ 0.05%

Compound: Clc1ccc([C@]23CNC[C@H]2C3)cc1Cl [Amitifadine, (1R,5S)-(+)-1-(3,4-dichlorophenyl)-3-azabicyclo[3.1.0]hexane hydrochloride]
- parent remaining unchanged after incubation ([1]; 87 μM): 82.4%
- Mass balance % AP→BL [8, 15]: 62%
- Mass balance % BL→AP [8, 15]: 88%

Compound: C[N+](C)([O-])CCCOc1nn(Cc2ccccc2)c2ccccc12 [Benzydamine N-oxide, reference compound]
- formation: area under the curve ratio of analyte to internal standard bicifadine-d5 [7, 13]: 35.70 ± 0.86
- formation: area under the curve ratio of analyte to internal standard bicifadine-d5 [7, 14]: 7.68 ± 1.51
- formation after 37° C. pre-incubation versus 45° C. pre-incubation [7]: 4.6 fold

Compound: Cn1c(=O)c2c(ncn2C)n(C)c1=O [Caffeine]
- fraction unbound at 60 min, 1 μM ([9]; 1 μM, mean and SEM of triplicate, read-out: % Bound (converted)): 0.73
- fraction unbound at 60 min, 10 μM ([9]; 10 μM, mean and SEM of triplicate, read-out: % Bound (converted)): 0.641
- fraction unbound at 60 min ([9]; average of 1 and 10 μM): 0.685

Compound: CC[C@@]1(c2ccccc2)C(=O)NC(=O)N(Cc2ccccc2)C1=O [(R)-N-3-benzyl-Phenobarb-ital, (R)—N-3-benzylphenobarbital]
- pIC50 [10]: 6.52

Compound: CC(Nn1nnc2ccccc21)c1ccccc1 (stereo not drawn) [N-(α-methylbenzyl)-1-AB, N-(α-methylbenzyl)-1-aminobenzotriazole]
- pIC50 [11]: 7.22
